Laboratory results from ChEMBL document CHEMBL1135173, “Discovery of substituted 3,4-diphenyl-thiazoles as a novel class of monoamine transporter inhibitors through 3-D pharmacophore search using a new pharmacophore model derived from mazindol” (Bioorg Med Chem Lett, 2002).

Experiments:
[1] = biological target: Norepinephrine transporter (Rattus norvegicus, UniProt Q9WTR4); test: Compound was tested for the inhibition of norepinephrine [3H]NE reuptake into rat cortical membranes; format: cell membranes, Membrane
Chain of Norepinephrine transporter (Q9WTR4 whole entry): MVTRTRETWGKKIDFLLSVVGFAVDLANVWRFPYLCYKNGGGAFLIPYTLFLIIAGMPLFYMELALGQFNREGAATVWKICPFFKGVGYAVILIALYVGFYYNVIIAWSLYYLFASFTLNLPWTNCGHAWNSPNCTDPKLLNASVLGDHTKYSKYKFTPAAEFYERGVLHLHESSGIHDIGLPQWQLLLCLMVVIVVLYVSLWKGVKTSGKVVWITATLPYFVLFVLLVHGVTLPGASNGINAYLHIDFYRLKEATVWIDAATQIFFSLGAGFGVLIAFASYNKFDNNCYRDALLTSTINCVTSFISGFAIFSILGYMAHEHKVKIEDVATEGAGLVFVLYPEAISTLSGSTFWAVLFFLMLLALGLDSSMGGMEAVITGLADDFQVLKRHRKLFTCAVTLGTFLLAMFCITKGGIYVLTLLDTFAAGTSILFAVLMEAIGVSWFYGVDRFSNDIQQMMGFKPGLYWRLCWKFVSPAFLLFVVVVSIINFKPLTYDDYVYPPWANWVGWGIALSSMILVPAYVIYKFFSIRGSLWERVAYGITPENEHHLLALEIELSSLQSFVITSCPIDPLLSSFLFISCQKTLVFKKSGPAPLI

Rattus norvegicus [2] = species: Rattus norvegicus; test: Compound was tested for the inhibition of [3H]-DA reuptake into rat striatal tissue; format: functional, Striatum
[3] = biological target: Sodium-dependent dopamine transporter (Rattus norvegicus, UniProt P23977); test: Tested for the ability to displace [3H]WIN-35 428 binding to dopamine transporter (DAT) in rat striatal tissue; format: tissue-based, Striatum
Chain of Sodium-dependent dopamine transporter (P23977 whole entry): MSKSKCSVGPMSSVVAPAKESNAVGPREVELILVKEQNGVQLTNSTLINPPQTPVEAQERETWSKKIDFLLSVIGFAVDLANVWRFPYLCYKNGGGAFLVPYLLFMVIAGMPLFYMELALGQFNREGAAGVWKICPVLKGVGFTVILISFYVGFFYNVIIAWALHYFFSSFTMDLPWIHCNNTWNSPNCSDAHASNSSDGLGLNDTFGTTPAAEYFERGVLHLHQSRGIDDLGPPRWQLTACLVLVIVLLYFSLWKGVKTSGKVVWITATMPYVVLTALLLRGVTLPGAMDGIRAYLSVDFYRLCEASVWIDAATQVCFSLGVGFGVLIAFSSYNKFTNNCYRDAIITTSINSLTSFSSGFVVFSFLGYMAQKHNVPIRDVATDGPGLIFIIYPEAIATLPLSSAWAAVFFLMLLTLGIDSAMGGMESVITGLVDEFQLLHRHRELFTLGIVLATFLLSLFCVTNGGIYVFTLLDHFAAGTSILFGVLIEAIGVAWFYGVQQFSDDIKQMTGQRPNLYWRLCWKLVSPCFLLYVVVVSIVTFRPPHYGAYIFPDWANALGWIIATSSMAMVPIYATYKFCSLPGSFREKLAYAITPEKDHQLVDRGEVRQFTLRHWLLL

[4] = biological target: Sodium-dependent serotonin transporter (Rattus norvegicus, UniProt P31652); test: Compound was tested for the inhibition of serotonin [3H]SER reuptake into rat forebrain membranes; format: cell membranes, Membrane
Chain of Sodium-dependent serotonin transporter (P31652 whole entry): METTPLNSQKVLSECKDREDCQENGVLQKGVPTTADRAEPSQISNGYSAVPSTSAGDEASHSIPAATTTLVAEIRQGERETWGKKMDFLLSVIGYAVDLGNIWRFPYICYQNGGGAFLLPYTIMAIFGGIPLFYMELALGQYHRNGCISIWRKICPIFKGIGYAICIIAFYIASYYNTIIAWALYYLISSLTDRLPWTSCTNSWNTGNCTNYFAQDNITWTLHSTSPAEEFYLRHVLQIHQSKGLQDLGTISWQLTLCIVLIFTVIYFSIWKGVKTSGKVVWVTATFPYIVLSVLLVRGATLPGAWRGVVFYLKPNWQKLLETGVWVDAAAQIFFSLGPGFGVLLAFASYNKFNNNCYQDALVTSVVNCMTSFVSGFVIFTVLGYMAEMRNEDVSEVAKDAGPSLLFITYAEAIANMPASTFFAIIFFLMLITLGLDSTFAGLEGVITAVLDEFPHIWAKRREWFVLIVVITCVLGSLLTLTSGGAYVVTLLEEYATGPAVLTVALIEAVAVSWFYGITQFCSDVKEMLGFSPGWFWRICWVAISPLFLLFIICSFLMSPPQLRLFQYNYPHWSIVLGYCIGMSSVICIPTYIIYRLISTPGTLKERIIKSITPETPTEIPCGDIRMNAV

[5] = biological target: Norepinephrine transporter (Rattus norvegicus) (UniProt Q9WTR4); test: Selectivity ratio towards Norepinephrine and to that of dopamine transporter
Chain of Norepinephrine transporter (Rattus norvegicus) (Q9WTR4 as listed by the source): as the sequence (Q9WTR4 whole entry) above

[6] = biological target: Monoamine transporters; serotonin & dopamine (Rattus norvegicus) (UniProt P31652+P23977); test: Selectivity ratio towards Serotonin and to that of dopamine transporter; format: protein assay
Chain of Monoamine transporters; serotonin & dopamine (Rattus norvegicus) (P23977 whole entry, looked up): as the sequence (P23977 whole entry) above
Chain of Monoamine transporters; serotonin & dopamine (Rattus norvegicus) (P31652 whole entry, looked up): as the sequence (P31652 whole entry) above

[7] = biological target: Norepinephrine transporter (Rattus norvegicus) (UniProt Q9WTR4); test: Selectivity ratio towards Norepinephrine and to that of serotonin transporter
Rattus norvegicus [8] = species: Rattus norvegicus; test: Compound was tested for the inhibition of [3H]DA reuptake into dopamine transporter in rat striatal tissue; format: functional, Striatum

Structure (SMILES)	Ki [1]	Ki (Rattus norvegicus [2])	Ki [3]	Ki [4]	Selectivity ratio [5]	Selectivity ratio [6]	Selectivity ratio [7]	Ki (Rattus norvegicus [8])
Cc1cc(-n2c(-c3c(F)cccc3F)csc2=N)ccc1Cl	86 nM	102 nM	48 nM	433 nM	0.84	4.25	0.2	
c1ccc(-c2nccnc2-c2ccccc2)cc1			> 1000 nM					
N=c1scc(-c2ccc(Cl)cc2)n1-c1ccccc1F	36 nM	210 nM	189 nM	1410 nM	0.17	6.69	0.026	
N=c1scc(-c2ccc(Cl)cc2)n1-c1ccccc1N1CCOCC1	22100 nM		42000 nM	424 nM	0.29	0.006	52.1	76.4 µM
Cc1cc(-c2csc(=N)n2-c2ccc(Cl)cc2)ccc1Cl	99 nM	23 nM	24 nM	225 nM	4.1	9.4	0.44	
N=c1scc(-c2ccc(Br)cc2)n1-c1cccc(C(F)(F)F)c1	140 nM	120 nM	71 nM	67 nM	1.17	0.56	2.09	
N=c1scc(-c2ccc(Cl)cc2)n1-c1ccc(Cl)cc1Cl	141 nM	254 nM	533 nM	843 nM	0.55	3.32	0.17	
N=c1scc(-c2ccc(Cl)cc2)n1-c1cccc(C(F)(F)F)c1	26 nM	101 nM	86 nM	398 nM	0.26	3.94	0.065	
Cc1ccc(-c2csc(=N)n2-c2ccc(Cl)cc2)cc1	801 nM	171 nM	124 nM	2620 nM	4.68	15.3	0.31	
CC1C(=O)N=CC(c2ccccc2)=C1c1ccccc1 (stereo not drawn)			> 1000 nM					
